Entries after “also recorded” stand apart in the source; their conditions may differ.

For experiment [1], the system named is MTHFD1^KO cells. As to the kind of experiment: growth of MTHFD1^KO cells in dialyzed serum media with compound supplementation. The experiment is classed as cell-based. On the procedure: (§1) MTHFD1^KO cells in dialyzed FBS media were treated with a single nucleotide or folic acid metabolite for 72 hours. Cells were then stained with Hoechst, imaged, and counted using an Operetta (Perkin Elmer). For the AMPK activator studies, cells were stained with Hoechst, imaged, and counted using an Opera (Perkin Elmer). Similarly, MTHFD1^K56R cells in dialyzed FBS media were treated with adenosine for 72 hours. Cells were then stained with Hoechst, imaged, and counted using an Operetta (Perkin Elmer).
MTHFD1^KO cells (F5 clone) in dialyzed FBS media were treated with the CeMM compound library (89,228 chemically diverse compounds). Both cell number, using Hoechst staining, and CellTiter-Glo (Promega), an indicator of metabolically active cells, was both used as a readout, depending on the stage of the screen.
Briefly, the screening was divided into the three parts (i) primary screening, (ii) follow-up and (iii) validation. During the primary screen, MTHFD1^KO cells were treated with 10 μM of every compound and CellTiter-Glo (Promega) was used to assess their ability to increase cell growth after 48 hours. From this primary screening, 17 compounds were selected as hits and rescreened in the follow-up part, in which the MTHFD1^KO cells were treated in a six-point dose response for 72 hours to discard any false positives. Finally, in the validation part, MTHFD1^KO cells were treated with 10 compounds in an eight-point dose response curve and the cell numbers were counted by staining with Hoechst, imaging and counting nuclei using the Opera Phenix (Perkin Elmer) and Harmony software (Perkin Elmer).

The target in experiment [2] is T1, NUDT14 (Homo sapiens, UniProt O95848).
T1 sequence (O95848 1-222): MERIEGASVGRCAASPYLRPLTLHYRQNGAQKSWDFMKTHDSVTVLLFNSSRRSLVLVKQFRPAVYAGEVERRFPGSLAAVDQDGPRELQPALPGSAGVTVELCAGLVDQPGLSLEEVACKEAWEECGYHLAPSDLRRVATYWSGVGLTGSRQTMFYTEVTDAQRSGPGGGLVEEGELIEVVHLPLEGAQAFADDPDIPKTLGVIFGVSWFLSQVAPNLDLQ
As to the kind of experiment: AMP-Glo catalytic assay, NUDT14. Format: biochemical. The note with it: 2 nM NUDT14, ADPr substrate, 1 hour, mean±SD; read-out: NUDT14 IC50. How it is done:
To identify alternative X groups, a screening exercise was performed. […] Inhibition activities of the compounds were determined using AMP-Glo system (Promega). The compounds were diluted from 50 μM to 0 μM in a final reaction containing 20 mM Hepes, 100 mM NaCl, 0.5 mM TCEP, 1 mM MgCl2 and 0.1% BSA, pH 7.4. The reactions were performed in 1536 well plate in […] reaction volume with 2 nM of NUDT5 and NUDT14, and […] of ADPr as the substrate. The final DMSO concentration was 0.5% for all reactions. NUDT5 reactions were incubated for 20 minutes while NUDT14 reactions were carried out for 1 hour at room temperature. […] The reactions were further incubated with the 4 μl of Detection solution for 1 hour at room temperature. Luminescence signals were then measured in PHERAstar FSX plate reader. Experiments were done in triplicate sets and data were analysed by GraphPad Prism 9. Data are represented as the mean±SD of three biological experiments: […]

Experiment [3] deals with T2, NUDT5 (Homo sapiens, UniProt Q9UKK9). As to the kind of experiment: NUDT5 degradation by Western blot in HEK293 cells. Format: cell-based. More on the design: endogenous in cells; host or cells: HEK293 (also CRBN knock-out HEK293 for A13). On the procedure: For Western blots, proteins were separated on polyacrylamide gels with SDS running buffer (50 mM Tris, 380 mM Glycine, 7 mM SDS) and transferred to PVDF membranes. All membranes were then blocked with blocking buffer (5% w/v milk powder, BioRad) in TBST (50 mM Tris (tris(hydroxymethylaminomethane), 150 mM NaCl, 0.05% (v/v) Tween 20, adjusted to pH 7.6) Proteins were probed with antibodies against phospho-AMPK (50081S, 1:2000, Cell Signaling Technologies), AMPK (5832S, 1:2000, Cell Signaling Technologies), PML (ab179466, 1:1000, abeam), PARP8 (NBP213733, 1:1000, Novus Biologicals), ATF2/7 (82870, 1:1000, Cell Signaling Technologies), alpha-Tubulin (ab7291, 1:1000, Abeam), phospho-UBTF (ab182583, 1:1000, abeam), UBTF (HPA006385, 1:1000, Sigma), RBM38 (AV40862, 1:1000, Sigma), or NUDT5 (ab129172, 1:1000, abeam), detected by HRP (horse-radish peroxidase) conjugated donkey anti-rabbit IgG antibody (Pierce) or donkey anti-mouse antibody IgG antibody (Pierce) and visualized with Clarity ECL Western Blotting substrate (BioRad), according to provided protocol.
In general terms: In western blotting, separated proteins are transferred to a membrane and probed.

Experiment [4] has as its target T3, NUDT5-CRBN interaction (Homo sapiens, UniProt Q96SW2+Q9UKK9).
T3 construct: expressed in transfected cells; host or cells: HEK293
As to the kind of experiment: NanoBRET ternary complex formation (protein-protein interaction) assay. Format: cell-based. The following applies: HEK293 cells, 4 h. How it is done:
For NanoBRET protein-protein interaction assay, NanoBRET Nano-Glo Detection System (N1662, Promega) was used according to the manufacturer's instruction. In brief, 220,000 HEK293 cells/ml was seeded in a 6-well plate. After 6 h, N-terminal nanoLuc NUDT5 and Halo-tag CRBN were then transfected into the cells using Fugene HD transfection reagent (E2312, Promega). The transfected HEK293 (220,000 cells/ml) were then replated onto a 384-well plate containing compounds. After 4 h incubation, NanoLuc substrate was added into each well and the signals were measured by PHERAstar Microplate Reader.
Compounds were dispensed in the 384-well plates by using Echo Acoustic Dispenser.
(In general: Bioluminescence resonance energy transfer reports proximity on the nanometre scale.)

Experiment [5] addresses T2, NUDT5. As to the kind of experiment: CRBN knock-out experiment, NUDT5 degradation. Format: cell-based. Details: endogenous in cells; host or cells: HEK293 (also CRBN knock-out HEK293 for A13). The note with it: CRBN knock-out HEK293 cells, 20 h.
In experiment [6] the test system is HAP-1 cells. The experiment in a line: 6-thioguanine assay (CellTiter-Glo viability). Format: cell-based. The following applies: 0.2 μg/ml 6-thioguanine, 72 h; HAP1 (and NB4, FIG. 11). How it is done: NB-4 and HAP1 cells (1000 cells/well in 40 uL) were seeded onto a 384-well plate containing compounds. DMSO or 0.2 μg/ml 6-thioguanine (A4882, Sigma-Aldrich) was added into respective wells. After 72 h incubation cell viability was measured by using CellTiter-Glo 2.0 Assay (G9242, Promega). Compounds in the 384-well plates were prepared by using Echo Acoustic Dispenser.
In general terms: In ATP-based viability assays light output follows the ATP content of the culture.

The subject of experiment [7] is MTHFD1^K56R cells. As to the kind of experiment: growth of MTHFD1^K56R cells in adenosine-containing media. Format: cell-based. The note with it: adenosine-containing media, 72 h. On the procedure: HAP1 (KBM7-derived, Horizon Discovery, C859), and HAP1 MTHFD1^KO, MTHFD1^K56R, and MTHFD1^K386E cell lines were cultured in Iscove's Modified Dulbecco's Medium (IMDM, Sigma), supplemented with 10% Fetal Bovine Serum (FBS, Sigma) and 1% Penicillin/Streptomycin (P/S, Sigma).
as §1

`Nc1ncnc2c1ncn2[C@@H]1O[C@H](COP(=O)(O)O)[C@@H](O)[C@H]1O` [AMP]: the “rescue of growth in dialyzed serum” value in experiment [1] is reported as “able to rescue the growth”.

With `Cn1nc(-c2ccc(Oc3ccccc3)cc2)c2c(N)ncnc21` [Compound 2], the IC50 in experiment [2] was 604 ± 116 nM. Same read-out and setting: the value for `Nc1ncnc2[nH]nc(-c3ccc(Oc4ccccc4)cc3)c12` [Compound 3] was 548 ± 37 nM.

Regarding `C=CC(=O)N1CCC=C(c2nn(C3CCN(C)CC3)c3ncnc(N)c23)C1` [Compound 5], the IC50 in experiment [2] was 4270 ± 133 nM. As to `CN1CCC(n2nc(-c3ccc(NC(=O)CCl)cc3)c3c(N)ncnc32)CC1` [Compound 8], the half-inhibitory concentration (IC50) in experiment [2] was 377 ± 35 nM. As for `Cn1c(=O)c2c(nc(N3CCN(C(=O)CCOCCOCCNc4cccc5c4C(=O)N(C4CCC(=O)NC4=O)C5=O)CC3)n2Cc2nnc(-c3ccc(Cl)c(Cl)c3)o2)n(C)c1=O` (stereo not shown) [Compound 068, 7-((5-(3,4-dichlorophenyl)-1,3,4-oxadiazol-2-yl)methyl)-8-(4-(3-(2-(2-((2-(2,6-dioxopiperidin-3-yl)-1,3-dioxoisoindolin-4-yl)amino)ethoxy)ethoxy)propanoyl)piperazin-1-yl)-1,3-dimethyl-3,7-dihydro-1H-purine-2,6-dione], in experiment [3], the “NUDT5 degradation at 100 nM, 20 h (%)” value worked out at 52%. Also, the greatest degradation seen (Dmax) in experiment [3] (HEK293, NUDT5 degradation) worked out at 50%. Regarding `Cn1c(=O)c2c(nc(N3CCN(CC4CCN(c5ccc6c(c5)C(=O)N(C5CCC(=O)NC5=O)C6=O)CC4)CC3)n2Cc2nnc(-c3ccc(Cl)c(Cl)c3)o2)n(C)c1=O` (stereo not shown) [Compound 070, 7-((5-(3,4-dichlorophenyl)-1,3,4-oxadiazol-2-yl)methyl)-8-(4-((1-(2-(2,6-dioxopiperidin-3-yl)-1,3-dioxoisoindolin-5-yl)piperidin-4-yl)methyl)piperazin-1-yl)-1,3-dimethyl-3,7-dihydro-1H-purine-2,6-dione], in experiment [4], the “ternary complex formation between NUDT5 and CRBN” value is reported as “induced the ternary complex”. Also, the “NUDT5 degradation at 100 nM, 20 h (%)” value in experiment [3] came to 39%. The “NUDT5 degradation” value in experiment [3] (Western blot, FIG. 12A) is “reasonable NUDT5 degrader”. With `Cn1c(=O)c2c(nc(N3CCN(CCC4CCN(c5ccc6c(c5)C(=O)N(C5CCC(=O)NC5=O)C6=O)CC4)CC3)n2Cc2nnc(-c3ccc(Cl)c(Cl)c3)o2)n(C)c1=O` (stereo not shown) [Compound 102, 7-((5-(3,4-dichlorophenyl)-1,3,4-oxadiazol-2-yl)methyl)-8-(4-(2-(1-(2-(2,6-dioxopiperidin-3-yl)-1,3-dioxoisoindolin-5-yl)piperidin-4-yl)ethyl)piperazin-1-yl)-1,3-dimethyl-3,7-dihydro-1H-purine-2,6-dione], the “NUDT5 degradation at 100 nM, 20 h (%)” value in experiment [3] came to 46%. On to `Cn1c(=O)c2c(nc(N3CCN(C(=O)CCOCCOCCOCCNc4cccc5c4C(=O)N(C4CCC(=O)NC4=O)C5=O)CC3)n2Cc2nnc(-c3ccc(Cl)c(Cl)c3)o2)n(C)c1=O` (stereo not shown) [Compound 127, 7-((5-(3,4-dichlorophenyl)-1,3,4-oxadiazol-2-yl)methyl)-8-(4-(3-(2-(2-(2-((2-(2,6-dioxopiperidin-3-yl)-1,3-dioxoisoindolin-4-yl)amino)ethoxy)ethoxy)ethoxy)propanoyl)piperazin-1-yl)-1,3-dimethyl-3,7-dihydro-1H-purine-2,6-dione], for which, in experiment [5], the “dependence of degradation on E3 ligase” value is recorded as “E3-ligase-dependant”. For the same compound, the “NUDT5 degradation at 100 nM, 20 h (%)” value in experiment [3] came out at 76%. The matching figures for `Cn1c(=O)c2c(nc(N3CCN(C(=O)CCOCCOCCOCCOCCNc4cccc5c4C(=O)N(C4CCC(=O)NC4=O)C5=O)CC3)n2Cc2nnc(-c3ccc(Cl)c(Cl)c3)o2)n(C)c1=O` (stereo not shown) [Compound 130, 7-((5-(3,4-dichlorophenyl)-1,3,4-oxadiazol-2-yl)methyl)-8-(4-(1-((2-(2,6-dioxopiperidin-3-yl)-1,3-dioxoisoindolin-4-yl)amino)-3,6,9,12-tetraoxapentadecan-15-oyl)piperazin-1-yl)-1,3-dimethyl-3,7-dihydro-1H-purine-2,6-dione]: “E3-ligase-dependant” and 81%. With `Cc1cc2nc3c(=O)[nH]c(=O)nc-3n(C[C@H](O)[C@H](O)[C@H](O)COP(=O)(O)OP(=O)(O)OC[C@H]3O[C@@H](n4cnc5c(N)ncnc54)[C@H](O)[C@@H]3O)c2cc1C` [FAD], the “rescue of growth in dialyzed serum” value in experiment [1] is “able to rescue the growth”.

In the case of `NC(=O)C1=CN([C@@H]2O[C@H](COP(=O)(O)OP(=O)(O)OC[C@H]3O[C@@H](n4cnc5c(N)ncnc54)[C@H](O)[C@@H]3O)[C@@H](O)[C@H]2O)C=CC1` [NADH], the “rescue of growth in dialyzed serum” value in experiment [1] is “able to rescue the growth”.

Turning to `NC(=O)c1ccc[n+]([C@@H]2O[C@H](COP(=O)([O-])OP(=O)(O)OC[C@H]3O[C@@H](n4cnc5c(N)ncnc54)[C@H](O)[C@@H]3O)[C@@H](O)[C@H]2O)c1` [NAD], in experiment [1], the “rescue of growth in dialyzed serum” value is given as “able to rescue the growth”.

On to `C[S+](CC[C@H](N)C(=O)[O-])C[C@H]1O[C@@H](n2cnc3c(N)ncnc32)[C@H](O)[C@@H]1O` (stereo partly shown) [SAM], for which, in experiment [1], the “rescue of growth in dialyzed serum” value is listed as “able to rescue the growth”. On to `Cn1c(=O)c2c(nc(N3CCNCC3)n2Cc2nnc(-c3ccc(Cl)c(Cl)c3)o2)n(C)c1=O` [TH5427, reference compound], for which the “rescue of 6-TG toxicity” value in experiment [6] is on record as “did not show a rescue; also recorded: neither the negative control nor TH5427 gave any significant effects”. Also, the “effect on adenosine toxicity / viability” value in experiment [7] was “did not affect the viability”. Take `O=c1[nH]cnc2nc[nH]c12` [hypoxanthine]: the “rescue of growth in dialyzed serum” value in experiment [1] is listed as “able to rescue the growth”.

Usually IC50 stands for the concentration at which inhibition is half-maximal. One may read the Dmax as the largest share of the target that was removed. Higher therefore signals deep degradation.

The values above are taken from US20260200923A1, “HETEROCYCLIC COMPOUNDS TARGETING THE NUDT5 PROTEIN” (Oxford University Innovation Limited, priority 2022, published 2026).
